Source: patent US20250059231A1, “Protease inhibitors” (priority 2021, published 2025)
Where two headings read alike, the source gives them in different places. Where a SMILES comes first, the peptide text is derived from it. [ ]: non-standard residue; d: D form. The star is where a group is joined. Arachidoyl = CCCCCCCCCCCCCCCCCCCC(=O)*; Palmitoyl = CCCCCCCCCCCCCCCC(=O)*; hPhe = N[C@@H](CCc1ccccc1)C(=O)O; Phg = N[C@H](C(=O)O)c1ccccc1; Pip = O=C(O)[C@@H]1CCCCN1

Legend:
DENV protease = target: T1, DENV protease (Dengue virus type 2, UniProt P29990); assay: biochemical; conditions: read-out: inhibition of DENV
T1 construct: The virus-encoded dengue protease comprises the amino-terminal 180 amino acids of NS3 (NS3pro) of the polyprotein
T1 sequence (P29990 1398-1437): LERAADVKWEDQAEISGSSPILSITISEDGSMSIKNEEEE
T1 sequence (P29990 1476-1653): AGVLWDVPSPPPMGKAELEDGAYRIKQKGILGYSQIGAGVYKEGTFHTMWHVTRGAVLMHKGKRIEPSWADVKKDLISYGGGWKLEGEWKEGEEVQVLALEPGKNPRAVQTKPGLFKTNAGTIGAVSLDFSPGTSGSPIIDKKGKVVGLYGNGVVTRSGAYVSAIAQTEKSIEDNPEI
Protocol: (§1) Dilutions were made starting from 10 mM stock solutions in DMSO and final concentrations were measured in triplicates. The inhibitors were preincubated for 15 min with DENV protease (100 nM) in the assay buffer (50 mM Tris-HCl pH 9.0, ethylene glycol (10% v/v), and 0.0016% Brij 58). The enzymatic reaction was initiated by the addition of the FRET substrate (final concentration 50 μM) to obtain a final assay volume of 100 μL per well. The enzymatic activity was monitored for 15 min and determined as a slope of relative fluorescence units per second (RFU/s) for each concentration. The mean of the triplicates were plotted against the corresponding concentration in CDDVault to determine the IC50-values. Analogous procedures were used to determine the inhibitory potency on WNV (Kühl et al., J. Med. Chem. 2020, 63 (15): 8179-8197) and ZIKA protease (Nitsche et al., ACS Med. Chem. Lett. 2019 Feb. 14; 10 (2): 168-174). For selectivity screening of active candidates, similar biochemical assays with human serine proteases trypsin (Weigel et al., J. Med. Chem. 2015, 58 (19), 7719-7733.) and/or thrombin (Nitsche et al., J. Med. Chem. 2013, 56 (21), 8389-8403) were used.

WNV protease [1] = target: T2, WNV protease (West Nile virus, UniProt P06935); assay: WNV protease assay (analogous procedure); assay type: biochemical; conditions: for inhibition at 1 µM: read-out: inhibition of WNNV
T2 construct: a trypsin-like serine protease domain in the N-terminal region of the flaviviral NS3 proteins
T2 sequence (P06935 1424-1463): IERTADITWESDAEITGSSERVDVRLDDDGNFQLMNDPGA
T2 sequence (P06935 1502-1679): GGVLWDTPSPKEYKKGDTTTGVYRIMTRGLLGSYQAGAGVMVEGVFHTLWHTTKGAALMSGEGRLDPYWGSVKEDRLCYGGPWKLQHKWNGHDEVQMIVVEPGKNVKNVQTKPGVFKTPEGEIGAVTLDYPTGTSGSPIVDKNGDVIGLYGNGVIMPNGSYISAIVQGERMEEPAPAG
Protocol: as §1, with “By catalytic activity of the protease, the cleaved substrate results in increased fluorescence that can be monitored using a BMG Labtech Fluostar OPTIMA Microtiter fluorescence plate reader (excitation wavelength of 320 nm and a monitored emission wavelength of 405 nm). Dilutions” for “Dilutions”

human Thrombin = human Thrombin (Homo sapiens, UniProt P00734); assay: Selectivity screening, human serine protease thrombin; assay type: biochemical; conditions: read-out: inhibition of human Thrombin
Protocol: as §1, with “By catalytic activity of the protease, the cleaved substrate results in increased fluorescence that can be monitored using a BMG Labtech Fluostar OPTIMA Microtiter fluorescence plate reader (excitation wavelength of 320 nm and a monitored emission wavelength of 405 nm). Dilutions” for “Dilutions”

human Trypsin = human Trypsin (Homo sapiens, UniProt P07477); assay: Selectivity screening, human serine protease trypsin; assay type: biochemical; conditions: read-out: inhibition of human Trypsin
Protocol: as §1, with “By catalytic activity of the protease, the cleaved substrate results in increased fluorescence that can be monitored using a BMG Labtech Fluostar OPTIMA Microtiter fluorescence plate reader (excitation wavelength of 320 nm and a monitored emission wavelength of 405 nm). Dilutions” for “Dilutions”

WNV protease [2] = target: T2, WNV protease; assay: WNV protease assay (analogous procedure); assay type: biochemical; conditions: read-out: IC50 for WNNV
ZIKA protease = target: T3, ZIKA protease (Zika virus, UniProt Q32ZE1); assay: biochemical; conditions: for inhibition at 1 µM / inhibition at 50 µM: read-out: inhibition of ZIKV
T3 construct: a trypsin-like serine protease domain in the N-terminal region of the flaviviral NS3 proteins
T3 sequence (Q32ZE1 1499-1676): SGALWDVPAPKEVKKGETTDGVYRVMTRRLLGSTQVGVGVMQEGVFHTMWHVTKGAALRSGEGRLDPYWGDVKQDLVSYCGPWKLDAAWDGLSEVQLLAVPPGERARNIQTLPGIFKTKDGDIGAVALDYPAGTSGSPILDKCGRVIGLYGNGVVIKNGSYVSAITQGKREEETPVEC
T3 sequence (Q32ZE1 1421-1460): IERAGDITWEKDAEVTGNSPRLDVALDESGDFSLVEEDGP
Protocol: as §1, with “By catalytic activity of the protease, the cleaved substrate results in increased fluorescence that can be monitored using a BMG Labtech Fluostar OPTIMA Microtiter fluorescence plate reader (excitation wavelength of 320 nm and a monitored emission wavelength of 405 nm). Dilutions” for “Dilutions”

| Compound | inhibition at 50 µM (DENV protease) [%] | inhibition at 50 µM (WNV protease [1]) [%] | inhibition at 5 µM (human Thrombin; at 5 μM) [%] | inhibition at 25 µM (human Trypsin; at 25 μM) [%] | IC50 (WNV protease [2]) [µM] | also measured |
| --- | --- | --- | --- | --- | --- | --- |
| CCCCCCCCCCCCCCCC(=O)N[C@@H](CCCCN)C(=O)N1CCC[C@H]1C(=O)N[C@H](C(=O)N[C@@H](CCCCN)C(N)=O)c1ccccc1 [compound 13] (Palmitoyl-KP[Phg]K-NH2) | ≥ 25 | ≥ 25 | < 5 | < 20 | ≤ 40 | inhibition at 5 µM (human Trypsin; at 5 μM): < 10% |
| CCCCCCCCCCCCCCCC(=O)N[C@@H](CCCCN)C(=O)N1CCCC[C@H]1C(=O)N[C@H](C(=O)N[C@@H](CCCCN)C(N)=O)c1ccccc1 [compound 16] (Palmitoyl-K[Pip][Phg]K-NH2) | ≥ 25 | ≥ 25 | < 5 | < 20 | ≤ 40 | inhibition at 5 µM (human Trypsin; at 5 μM): < 10% |
| CCCCCCCCCCCCCCCC(=O)N[C@@H](CCCCN)C(=O)N[C@@H](C)C(=O)N[C@@H](C)C(=O)N[C@@H](Cc1ccccc1)C(N)=O [compound 17] (Palmitoyl-KAAF-NH2) | ≥ 25 | ≥ 25 | < 5 | < 20 | ≤ 40 | inhibition at 5 µM (human Trypsin; at 5 μM): < 10% |
| CCCCCCCCCCCCCCCC(=O)N[C@@H](C)C(=O)N[C@@H](CCCNC(=N)N)C(=O)N[C@@H](CCC(N)=O)C(=O)N[C@@H](CCCCN)B(O)O [compound 39] | ≥ 25 |  |  |  | ≤ 40 | inhibition at 1 µM (DENV protease): ≥ 20%; IC50 (ZIKA protease): ≤ 25 µM; inhibition at 1 µM (ZIKA protease): ≥ 10%; inhibition at 50 µM (ZIKA protease): ≥ 65% |
| CCCCCCCCCCCCCCCC(=O)N[C@@H](CCCNC(=N)N)C(=O)N[C@@H](CCC(N)=O)C(=O)N[C@@H](CCCCN)B(O)O [compound 41] | ≥ 25 |  |  |  | ≤ 40 | inhibition at 1 µM (DENV protease): ≥ 20% |
| CC(=O)N[C@@H](C)C(=O)N[C@@H](CCCNC(=N)N)C(=O)N[C@@H](CCC(N)=O)C(=O)N[C@@H](CCCCN)B(O)O [compound 48] | ≥ 25 | ≥ 25 |  |  | ≤ 40 | inhibition at 1 µM (DENV protease): ≥ 20%; IC50 (ZIKA protease): ≤ 25 µM; inhibition at 1 µM (ZIKA protease): ≥ 10%; inhibition at 50 µM (ZIKA protease): ≥ 65% |
| CCCCCCCCCCCCCCCC(=O)N[C@@H](CCCCN)C(=O)N[C@@H](C)C(=O)N[C@@H](C)C(=O)N[C@@H](CCc1ccccc1)C(N)=O [compound 90] (Palmitoyl-KAA[hPhe]-NH2) | ≥ 25 | ≥ 25 | < 5 | < 20 | ≤ 40 | inhibition at 5 µM (human Trypsin; at 5 μM): < 10% |
| CCCCCCCCCCCCCCCCCCCC(=O)N[C@@H](CCCCN)C(=O)N[C@@H](C)C(=O)N[C@@H](C)C(=O)N[C@H](CCCCN)C(N)=O [compound 132] (Arachidoyl-KAA[dK]-NH2) | ≥ 25 | ≥ 25 | < 5 | < 20 | ≤ 40 | inhibition at 1 µM (DENV protease): ≥ 20%; inhibition at 1 µM (WNV protease [1]): ≥ 10% |
| CCCCCCCCCCCCCCCC(=O)N[C@@H](CCCCN)C(=O)N1CCC[C@H]1C(=O)N[C@@H](C)C(=O)N[C@@H](CCCCN)C(N)=O [compound 156] (Palmitoyl-KPAK-NH2) | ≥ 25 |  |  |  | ≤ 40 |  |
| CCCCCCCCCCCCCCCC(=O)N[C@@H](CCCCN)C(=O)N[C@@H](C)C(=O)N[C@@H](Cc1cnc[nH]1)C(N)=O [compound 167] (Palmitoyl-Lys-Ala-His-NH2) |  | ≥ 25 | < 5 |  | ≤ 40 | inhibition at 1 µM (DENV protease): ≥ 20%; IC50 (ZIKA protease): ≤ 25 µM; inhibition at 1 µM (ZIKA protease): ≥ 10%; inhibition at 50 µM (ZIKA protease): ≥ 65% |
| CCCCCCCCCCCCCCCC(=O)N[C@@H](CCCCN)C(=O)N[C@@H](C)C(=O)N[C@@H](CCCCN)C(=O)c1ccccc1 [compound 174] | ≥ 25 | ≥ 25 |  |  | ≤ 40 | inhibition at 5 µM (human Thrombin): < 5%; inhibition at 5 µM (human Trypsin): < 10%; inhibition at 25 µM (human Trypsin): < 20% |
| CCCCCCCCCCCCCCCC(=O)N[C@@H](CCCCN)C(=O)N[C@@H](C)C(=O)N[C@@H](CCCCN)C(=O)C(N)=O [compound 176] | ≥ 25 | ≥ 25 | < 5 |  | ≤ 40 | IC50 (ZIKA protease): ≤ 25 µM; inhibition at 50 µM (ZIKA protease): ≥ 65% |
| CCCCCCCCCCCCCCCC(=O)N[C@@H](CCCCN)C(=O)N[C@@H](C)C(=O)N[C@@H](C)C(=O)N[C@H](C=O)CCCCN [compound 180] (Palmitoyl-KAAK-aldehyde) | ≥ 25 | ≥ 25 | < 5 |  | ≤ 40 |  |
| CCCCCCCCCCCCCCCC(=O)N[C@@H](CCCCN)C(=O)N[C@@H](C)C(=O)N[C@@H](C)C(=O)N[C@@H](C=O)CCCCN [compound 181] (Palmitoyl-KAA[dK]-aldehyde) | ≥ 25 | ≥ 25 | < 5 | < 20 | ≤ 40 |  |
| CCCCCCCCCCCCCCCC(=O)N[C@@H](CCCCN)C(=O)N[C@@H](C)C(=O)N[C@@H](CCCCN)B(O)O [compound 182] | ≥ 25 | ≥ 25 |  |  | ≤ 40 |  |
| CCCCCCCCCCCCCCCC(=O)N[C@@H](CCCCN)C(=O)N[C@@H](C)C(=O)N[C@@H](C)C(=O)N[C@@H](CCCCN)C(O)O [compound 183] | ≥ 25 | ≥ 25 |  |  | ≤ 40 |  |
| CCCCCCCCCCCCCCCC(=O)N[C@@H](CCCCN)C(=O)N[C@@H](C)C(=O)N[C@@H](CCCCN)C(=O)N(C)C [compound 184] (Palmitoyl-Lys-Ala-Lys-NMe2) | ≥ 25 | ≥ 25 |  |  |  |  |
| CCCCCCCCCCCCCCCC(=O)N[C@@H](CCCCN)C(=O)N[C@@H](C)C(=O)N[C@@H](CCCCN)C(=O)N(C)OC [compound 185] | ≥ 25 | ≥ 25 |  |  |  |  |
| CCCCCCCCCCCCCCCC(=O)N[C@@H](CCCCN)C(=O)N[C@@H](C)C(=O)N[C@H](C=O)CCCCN [compound 186] (Palmitoyl-Lys-Ala-Lys-aldehyde) | ≥ 25 | ≥ 25 | < 5 |  | ≤ 40 | inhibition at 1 µM (WNV protease [1]): ≥ 10% |
| CCCCCCCCCCCCCCCC(=O)N[C@H](CCCCN)C(=O)N[C@@H](C)C(=O)N[C@@H](Cc1ccccc1)C(N)=O [compound 190] (Palmitoyl-[dK]-Ala-Phe-NH2) | ≥ 25 | ≥ 25 | < 5 | < 20 | ≤ 40 | inhibition at 5 µM (human Trypsin; at 5 μM): < 10% |
| CCCCCCCCCCCCCCCC(=O)N[C@@H](Cc1c[nH]c2ccccc12)C(=O)N[C@@H](C)C(=O)N[C@@H](C)C(=O)N[C@@H](Cc1c[nH]c2ccccc12)C(N)=O [compound 191] (Palmitoyl-WAAW-NH2) |  | ≥ 25 |  |  |  |  |
| CCCCCCCCCCCCCCCC(=O)N[C@@H](CCCCN)C(=O)N[C@@H](C)C(=O)N[C@@H](Cc1ccccc1)C(N)=O [compound 192] (Palmitoyl-Lys-Ala-Phe-NH2) | ≥ 25 | ≥ 25 |  |  |  |  |
| CCCCCCCCCCCCCCCC(=O)N[C@H](CCCCN)C(=O)N[C@@H](C)C(=O)N[C@@H](C)C(=O)N[C@@H](Cc1ccccc1)C(N)=O [compound 193] (Palmitoyl-[dK]AAF-NH2) | ≥ 25 | ≥ 25 |  |  | ≤ 40 |  |
